Data reported in US5840684A, “Glycopeptide antibiotic derivatives” (Eli Lilly and Company, priority 1995, dated 1998).
In brackets after ≈: the same amount, converted by molar mass.

Assays:
[1] = system: Staphylococcus aureus SA1199; experiment: broth micro-dilution MIC; format: cell-based
Method: (§1) The MIC's were determined using a standard broth micro-dilution assay.

[2] = system: Staphylococcus aureus SA1199A; experiment: broth micro-dilution MIC; format: cell-based
Method: as §1

[3] = system: Streptococcus pyogenes C203; experiment: broth micro-dilution MIC; format: cell-based
Method: as §1

[4] = system: Staphylococcus aureus 489; experiment: broth micro-dilution MIC; format: cell-based
Method: as §1

Entercoccus faecium 276 = experiment: broth micro-dilution MIC; format: cell-based
Method: as §1

[5] = system: Staphylococcus aureus X778; experiment: broth micro-dilution MIC; format: cell-based
Method: as §1

[6] = system: Staphylococcus aureus X400; experiment: broth micro-dilution MIC; format: cell-based
Method: as §1

[7] = system: Staphylococcus aureus 447; experiment: broth micro-dilution MIC; format: cell-based
Method: as §1

[8] = system: Staphylococcus aureus 446; experiment: broth micro-dilution MIC; format: cell-based
Method: as §1

[9] = system: Entercoccus faecium 180-1; experiment: broth micro-dilution MIC; format: cell-based
Method: as §1

[10] = system: vancomycin-resistant enterococci; experiment: broth micro-dilution, mean geometric MIC; format: cell-based, Enterococcus faecium and Enterococcus faecalis; settings: enterococci, 24-hour incubation
[11] = system: Enterococcus gallinarum 245; experiment: broth micro-dilution MIC; format: cell-based; settings: Enterococcus gallinarum 245
Method: (§2) The formula I compounds have in vitro and in vivo activity against Gram-positive pathogenic bacteria. The MIC's were determined using a standard broth micro-dilution assay.

Entercoccus faecium 2041 = experiment: broth micro-dilution MIC; format: cell-based; settings: Entercoccus faecium 2041
Method: as §2

[12] = system: Staphylococcus haemolyticus 105; experiment: broth micro-dilution MIC; format: cell-based
Method: as §2

[13] = system: Staphylococcus haemolyticus 415; experiment: broth micro-dilution MIC; format: cell-based
Method: as §2

[14] = system: Streptococcus pneumoniae P1; experiment: broth micro-dilution MIC; format: cell-based
Method: as §2

Entercoccus faecium 180 = experiment: broth micro-dilution MIC; format: cell-based; settings: Entercoccus faecium 180
Method: as §2

[15] = system: Staphylococcus epidermidis 270; experiment: broth micro-dilution MIC; format: cell-based
Method: as §2

[16] = system: vancomycin-susceptible enterococci; experiment: broth micro-dilution, mean geometric MIC; format: cell-based, Enterococcus faecium and Enterococcus faecalis; settings: enterococci, 24-hour incubation
[17] = system: Staphylococcus aureus S13E; format: cell-based
Method: as §1

[18] = system: Staphylococcus aureus SA1199B; format: cell-based
Method: as §1

[19] = system: Staphylococcus aureus 491; experiment: broth micro-dilution MIC; format: cell-based
Method: as §1

| Structure (SMILES) | MIC [1] [µg/mL] | MIC [2] [µg/mL] | MIC [3] [µg/mL] | MIC [4] [µg/mL] | MIC (Entercoccus faecium 276) [µg/mL] | MIC [5] [µg/mL] | MIC [6] [µg/mL] | MIC [7] [µg/mL] | MIC [8] [µg/mL] | MIC [9] [µg/mL] | mean geometric MIC, Vancomycin Resistant Strains [10] [µg/mL] | MIC [11] [µg/mL] | MIC (Entercoccus faecium 2041) [µg/mL] | MIC [12] [µg/mL] | MIC [13] [µg/mL] | MIC [14] [µg/mL] | MIC (Entercoccus faecium 180) [µg/mL] | MIC [15] [µg/mL] | mean geometric MIC, Vancomycin Sensitive Strains [16] [µg/mL] | MIC [17] [µg/mL] | further results |
| --- | --- | --- | --- | --- | --- | --- | --- | --- | --- | --- | --- | --- | --- | --- | --- | --- | --- | --- | --- | --- | --- |
| CNC(CC(C)C)C(=O)NC1C(=O)NC(CC(N)=O)C(=O)NC2C(=O)NC3C(=O)NC(C(=O)NC(C(=O)O)c4cc(O)cc(O)c4-c4cc3ccc4O)C(OC3CC(C)(N)C(O)C(C)O3)c3ccc(c(Cl)c3)Oc3cc2cc(c3OC2OC(CO)C(O)C(O)C2OC2CC(C)(NCc3ccc(O)cc3)C(O)C(C)O2)Oc2ccc(cc2Cl)C1O (stereo not drawn) [Compound 136] | ≤ 0.06 | ≤ 0.06 | ≤ 0.06 | ≤ 0.06 | ≤ 0.06 | ≤ 0.06 | ≤ 0.06 | 2 (≈ 1.18 µM) | ≤ 0.06 | ≤ 0.06 | 23 | 4 (≈ 2.35 µM) | ≤ 0.06 | 2 (≈ 1.18 µM) | 4 (≈ 2.35 µM) | ≤ 0.06 | 2 (≈ 1.18 µM) | 1 (≈ 0.589 µM) | 0.76 | ≤ 0.06 | MIC [18]: ≤ 0.06 µg/mL |
| CNC(CC(C)C)C(=O)NC1C(=O)NC(CC(N)=O)C(=O)NC2C(=O)NC3C(=O)NC(C(=O)NC(C(=O)O)c4cc(O)cc(O)c4-c4cc3ccc4O)C(OC3CC(C)(N)C(O)C(C)O3)c3ccc(cc3)Oc3cc2cc(c3OC2OC(CO)C(O)C(O)C2OC2CC(C)(NCc3ccc(-c4ccccc4)cc3)C(O)C(C)O2)Oc2ccc(cc2)C1O (stereo not drawn) [Compound 183] | ≤ 0.06 | ≤ 0.06 | ≤ 0.06 | ≤ 0.06 | – | ≤ 0.06 | ≤ 0.06 | ≤ 0.06 | ≤ 0.06 | ≤ 0.06 | 23 | 0.5 (≈ 0.296 µM) | ≤ 0.06 | ≤ 0.06 | ≤ 0.06 | ≤ 0.06 | 2 (≈ 1.18 µM) | ≤ 0.06 | 0.130 | ≤ 0.06 | MIC [18]: ≤ 0.06 µg/mL |
| CNC(CC(C)C)C(=O)NC1C(=O)NC(CC(N)=O)C(=O)NC2C(=O)NC3C(=O)NC(C(=O)NC(C(=O)O)c4cc(O)cc(O)c4-c4cc3ccc4O)C(OC3CC(C)(N)C(O)C(C)O3)c3ccc(c(Cl)c3)Oc3cc2cc(c3OC2OC(CO)C(O)C(O)C2OC2CC(C)(NCc3ccc(NC(=O)c4ccc(F)cc4)cc3)C(O)C(C)O2)Oc2ccc(cc2Cl)C1O (stereo not drawn) [Compound 193] | – | ≤ 0.06 | ≤ 0.06 | – | ≤ 0.06 | ≤ 0.06 | – | ≤ 0.06 | 0.5 (≈ 0.275 µM) | ≤ 0.06 | 2 | 1 (≈ 0.55 µM) | ≤ 0.06 | 0.5 (≈ 0.275 µM) | 1 (≈ 0.55 µM) | ≤ 0.06 | ≤ 0.06 | – | 0.072 | ≤ 0.06 | MIC [19]: ≤ 0.06 µg/mL |
| C=CCCCCNC1(C)CC(OC2C(Oc3c4cc5cc3Oc3ccc(cc3Cl)C(OC3CC(C)(N)C(O)C(C)O3)C3NC(=O)C(NC(=O)C5NC(=O)C(CC(N)=O)NC(=O)C(NC(=O)C(CC(C)C)NC)C(O)c5ccc(c(Cl)c5)O4)c4ccc(O)c(c4)-c4c(O)cc(O)cc4C(C(=O)O)NC3=O)OC(CO)C(O)C2O)OC(C)C1O (stereo not drawn) [Compound 217] | ≤ 0.06 | ≤ 0.06 | ≤ 0.06 | ≤ 0.06 | ≤ 0.06 | ≤ 0.06 | ≤ 0.06 | 1 (≈ 0.597 µM) | – | ≤ 0.06 | 13 | 8 (≈ 4.78 µM) | ≤ 0.06 | 2 (≈ 1.19 µM) | 8 (≈ 4.78 µM) | ≤ 0.06 | 2 (≈ 1.19 µM) | 0.5 (≈ 0.299 µM) | 0.57 | ≤ 0.06 | MIC [18]: 0.125 µg/mL (≈ 0.0746 µM) |
